Results published in ChEMBL document CHEMBL1132590, “Aminopyridazines as acetylcholinesterase inhibitors” (J Med Chem, 1999).

Columns and labels:
[1] = target: Acetylcholinesterase (Homo sapiens, UniProt P22303); experiment: Inhibitory concentration against acetylcholinesterase (AChE) from human erythrocytes
[2] = target: Cholinesterase (Homo sapiens, UniProt P06276); experiment: Inhibitory concentration against Butyrylcholinesterase (BuChE) from human serum
[3] = target: Acetylcholinesterase (Torpedo californica, UniProt P04058)
Description: In vitro inhibition of Torpedo californica acetylcholinesterase.

[4] = Ratio of inhibitory activity of ocmpound towards acetylcholinesterase from human erythrocytes over butyrylcholinesterase from human serum
[5] = target: T1, Acetylcholinesterase (Rattus norvegicus, UniProt P37136)
T1 sequence (P37136 whole entry): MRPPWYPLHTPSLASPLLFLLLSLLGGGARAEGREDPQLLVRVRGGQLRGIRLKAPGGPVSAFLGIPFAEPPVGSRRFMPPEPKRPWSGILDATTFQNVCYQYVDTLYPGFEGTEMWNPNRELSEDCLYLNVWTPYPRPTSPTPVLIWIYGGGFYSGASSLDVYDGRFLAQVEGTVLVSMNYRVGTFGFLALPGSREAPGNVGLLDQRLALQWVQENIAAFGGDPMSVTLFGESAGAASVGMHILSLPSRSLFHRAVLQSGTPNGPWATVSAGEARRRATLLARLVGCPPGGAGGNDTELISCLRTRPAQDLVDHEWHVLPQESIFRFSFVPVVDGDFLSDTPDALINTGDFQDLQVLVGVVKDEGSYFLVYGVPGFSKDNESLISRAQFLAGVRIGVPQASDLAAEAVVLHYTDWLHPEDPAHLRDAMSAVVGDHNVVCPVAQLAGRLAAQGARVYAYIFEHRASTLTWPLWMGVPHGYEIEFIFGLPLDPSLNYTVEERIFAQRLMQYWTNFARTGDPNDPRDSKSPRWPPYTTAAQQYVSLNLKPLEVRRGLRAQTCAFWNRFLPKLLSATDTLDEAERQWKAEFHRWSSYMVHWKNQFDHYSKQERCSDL
Description: In vitro inhibition of acetylcholinesterase in homogenized rat striatum.

Chain of Acetylcholinesterase (Homo sapiens, UniProt P22303) (P22303 whole entry): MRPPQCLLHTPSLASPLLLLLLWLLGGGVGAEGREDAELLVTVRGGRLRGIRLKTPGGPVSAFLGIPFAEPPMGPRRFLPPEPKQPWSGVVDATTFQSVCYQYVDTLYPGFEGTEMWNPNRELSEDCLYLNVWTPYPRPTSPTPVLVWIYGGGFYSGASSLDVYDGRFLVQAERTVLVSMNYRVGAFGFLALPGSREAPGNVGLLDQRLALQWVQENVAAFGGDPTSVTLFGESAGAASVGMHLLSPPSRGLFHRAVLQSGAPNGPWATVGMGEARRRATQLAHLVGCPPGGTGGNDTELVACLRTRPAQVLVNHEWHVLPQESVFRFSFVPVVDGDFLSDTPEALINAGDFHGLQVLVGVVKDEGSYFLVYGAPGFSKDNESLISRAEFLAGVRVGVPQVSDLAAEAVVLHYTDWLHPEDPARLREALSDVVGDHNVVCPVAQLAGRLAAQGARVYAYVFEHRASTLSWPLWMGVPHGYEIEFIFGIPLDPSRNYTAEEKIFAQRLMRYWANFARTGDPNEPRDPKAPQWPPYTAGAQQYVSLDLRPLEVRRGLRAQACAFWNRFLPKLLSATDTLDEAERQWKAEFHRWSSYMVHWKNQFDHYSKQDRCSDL
Chain of Acetylcholinesterase (Torpedo californica, UniProt P04058) (P04058 whole entry): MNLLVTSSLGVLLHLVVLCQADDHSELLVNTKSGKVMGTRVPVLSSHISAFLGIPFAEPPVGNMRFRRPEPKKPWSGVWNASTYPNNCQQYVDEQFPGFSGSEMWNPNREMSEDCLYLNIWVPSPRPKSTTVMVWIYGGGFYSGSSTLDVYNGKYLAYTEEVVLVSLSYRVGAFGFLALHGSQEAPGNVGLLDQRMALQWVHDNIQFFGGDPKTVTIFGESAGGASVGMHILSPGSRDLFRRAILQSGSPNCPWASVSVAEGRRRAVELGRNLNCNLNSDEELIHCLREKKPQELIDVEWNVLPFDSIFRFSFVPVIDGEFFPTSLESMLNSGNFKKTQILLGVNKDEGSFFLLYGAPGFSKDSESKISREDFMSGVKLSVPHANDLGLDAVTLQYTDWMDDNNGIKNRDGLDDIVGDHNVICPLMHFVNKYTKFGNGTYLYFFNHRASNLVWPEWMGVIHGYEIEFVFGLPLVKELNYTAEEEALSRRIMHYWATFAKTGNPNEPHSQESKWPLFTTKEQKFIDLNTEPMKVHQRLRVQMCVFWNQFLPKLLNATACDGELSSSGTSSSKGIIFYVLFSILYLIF
Chain of Cholinesterase (P06276 whole entry): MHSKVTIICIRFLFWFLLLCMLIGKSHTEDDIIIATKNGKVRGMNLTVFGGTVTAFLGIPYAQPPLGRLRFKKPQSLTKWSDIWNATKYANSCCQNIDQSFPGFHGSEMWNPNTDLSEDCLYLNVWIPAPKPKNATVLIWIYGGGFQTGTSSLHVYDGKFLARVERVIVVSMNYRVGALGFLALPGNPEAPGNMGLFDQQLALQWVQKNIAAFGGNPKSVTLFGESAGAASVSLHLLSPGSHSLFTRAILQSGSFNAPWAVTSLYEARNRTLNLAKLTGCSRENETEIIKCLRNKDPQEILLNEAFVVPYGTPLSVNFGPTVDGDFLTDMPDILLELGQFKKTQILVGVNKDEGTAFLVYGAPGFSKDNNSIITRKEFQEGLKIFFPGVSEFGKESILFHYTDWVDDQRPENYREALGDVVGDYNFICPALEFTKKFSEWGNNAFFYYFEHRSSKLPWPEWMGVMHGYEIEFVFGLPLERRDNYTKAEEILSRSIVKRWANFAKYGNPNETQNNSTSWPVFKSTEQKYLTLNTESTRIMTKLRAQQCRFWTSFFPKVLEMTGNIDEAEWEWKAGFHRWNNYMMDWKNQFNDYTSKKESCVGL

SMILES: c1ccc(CN2CCC(CCNc3ccc(-c4ccccc4)nn3)CC2)cc1
- IC50 [1]: 0.14 µM
- IC50 [2]: 0.7 µM
- IC50 [3]: 0.12 µM
- Ratio [4]: 5

SMILES: CN(CCNc1ccc(-c2ccccc2)nn1)Cc1ccccc1
- IC50 [3]: 170 µM

SMILES: c1ccc(-c2ccc(NCCN3CCCCC3)nn2)cc1
- IC50 [3]: 71 µM
- IC50 [5]: 13 µM

SMILES: Cc1cc(-c2ccccc2)nnc1NCCN1CCCCC1
- IC50 [5]: 5.4 µM

SMILES: c1ccc(CN2CCC(CNc3ccc(-c4ccccc4)nn3)CC2)cc1
- IC50 [3]: 5.6 µM

SMILES: Nc1cc(-c2ccccc2)nnc1NCCN1CCOCC1
- IC50 [5]: 270 µM

SMILES: c1ccc(-c2ccc(NCCCCN3CCc4ccccc4C3)nn2)cc1
- IC50 [3]: 15 µM

SMILES: CCN1CCCC1CNc1ccc(-c2ccccc2)nn1 (configuration not stated)
- IC50 [3]: 62 µM

SMILES: c1ccc(-c2cnc(NCCN3CCCCC3)nc2)cc1
- IC50 [5]: > 100 µM

SMILES: c1ccc(-c2cc(-c3ccccc3)c(NCCN3CCOCC3)nn2)cc1
- IC50 [5]: 260 µM

SMILES: c1ccc(-c2ccc(NCCN3CCc4ccccc4C3)nn2)cc1
- IC50 [3]: 83 µM

SMILES: Cc1cc(-c2ccccc2)nnc1NCCN1CCOCC1
- IC50 [5]: 85 µM

SMILES: c1ccc(-c2nnc(NCCN3CCCCC3)s2)cc1
- IC50 [5]: 54 µM

SMILES: CN(CCCCCNc1ccc(-c2ccccc2)nn1)Cc1ccccc1
- IC50 [1]: 0.93 µM
- IC50 [2]: 0.34 µM
- IC50 [3]: 0.74 µM
- Ratio [4]: 0.36

SMILES: c1ccc(-c2ccc(NCCCN3CCc4ccccc4C3)nn2)cc1
- IC50 [3]: 35 µM

SMILES: c1ccc(-c2ccc(NCCCN3CCOCC3)nn2)cc1
- IC50 [3]: 410 µM

SMILES: c1ccc(-c2ncc(NCCN3CCCCC3)nn2)cc1
- IC50 [5]: 57 µM

SMILES: OCc1cc(-c2ccccc2)nnc1NCCN1CCOCC1
- IC50 [5]: 440 µM

SMILES: c1ccc(-c2ccc(NCCN3CCOCC3)nn2)cc1
- IC50 [3]: 800 µM
- IC50 [5]: > 1000 µM

SMILES: CN(CCCNc1ccc(-c2ccccc2)nn1)Cc1ccccc1
- IC50 [3]: 13 µM

SMILES: Cc1cc(-c2ccc(Cl)cc2)nnc1NCCN1CCOCC1
- IC50 [5]: 34 µM

SMILES: c1ccc(-c2ccc(NCCCCCN3CCc4ccccc4C3)nn2)cc1
- IC50 [1]: 47 µM
- IC50 [2]: 0.31 µM
- IC50 [3]: 10 µM
- Ratio [4]: 0.0066

SMILES: c1ccc(C2=NNC(NCCN3CCCCC3)=NC2)cc1
- IC50 [5]: 47 µM

SMILES: Cc1cc(-c2ccc(Cl)cc2)nnc1NCCN1CCCCC1
- IC50 [5]: 1.3 µM

SMILES: Cc1cc(-c2ccc3c(c2)OCO3)nnc1NCCN1CCCCC1
- IC50 [5]: 1 µM

SMILES: c1ccc(-c2ccc(NCCN3CCCCC3)nc2)cc1
- IC50 [5]: 70 µM

SMILES: N#Cc1cc(-c2ccccc2)nnc1NCCN1CCOCC1
- IC50 [5]: > 100 µM

SMILES: FC(F)(F)c1cc(-c2ccccc2)nnc1NCCN1CCOCC1
- IC50 [5]: 740 µM

SMILES: c1ccc(CN2CCC(Nc3ccc(-c4ccccc4)nn3)CC2)cc1
- IC50 [3]: 65 µM

SMILES: c1ccc(-c2cnc(NCCN3CCCCC3)nn2)cc1
- IC50 [5]: 60 µM

SMILES: CN(CCCCNc1ccc(-c2ccccc2)nn1)Cc1ccccc1
- IC50 [3]: 11 µM
